IC50 data for 22 compounds are collected here from patent publication US9725445B2, “Cycloalkyl nitrile pyrazolo pyridones as Janus kinase inhibitors” (Merck Sharp & Dohme Corp., priority 2013, dated 2017).

Structures are written as SMILES.

Sequence of JAK1 (P23458 875-1153): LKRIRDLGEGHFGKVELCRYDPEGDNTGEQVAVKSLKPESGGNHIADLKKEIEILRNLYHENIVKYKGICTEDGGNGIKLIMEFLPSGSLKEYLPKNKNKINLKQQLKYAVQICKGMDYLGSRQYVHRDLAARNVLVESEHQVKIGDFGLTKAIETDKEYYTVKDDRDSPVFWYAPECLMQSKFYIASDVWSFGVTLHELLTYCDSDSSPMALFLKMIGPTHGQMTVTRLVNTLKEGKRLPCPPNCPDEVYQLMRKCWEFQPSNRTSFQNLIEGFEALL

The target of this experiment is JAK1 (Homo sapiens (Human), UniProt P23458). As to the kind of experiment: Jak biochemical HTRF assay, JAK1. The note with it: HTRF biochemical assay, recombinant GST-tagged catalytic domain; read-out: JAK1 IC50. As to the method:
Jak Biochemical HTRF Assay Protocol
The ability of compounds to inhibit the activity of JAK1, JAK2, JAK3, and Tyk2 was measured using a recombinant purified GST-tagged catalytic domain for each enzyme (Invitrogen JAK1 #M4290, JAK2 #M4290, JAK3 #M4290, Tyk2 #M4290) in an HTRF format biochemical assay. […] The basic assay protocol is as follows: First, 250 nL of diluted compounds in DMSO were dispensed into the wells of a dry 384-well Black plate (Greiner #781076) using a Labcyte Echo 555 acoustic dispenser. Subsequent reagent additions employed an Agilent Bravo. […] After equilibration, 2 μL of 10×ATP in 1× assay buffer was added to initiate the kinase reaction and the plates were shaken and then incubated at room temperature for 120 minutes. […] Plates were shaken and centrifuged and then incubated 60 minutes at room temperature and then read on a Perkin Elmer Envision (λex=337 nm, λem=665 and 615 nm, TRF delay time=20 μs). HTRF signal=10,000*665 nm reading/615 nm reading. After normalization to untreated controls, the percent inhibition of the HTRF signal at each compound concentration was calculated. The plot of percent inhibition versus the log of compound concentration was fit with a 4-parameter dose response equation to calculate IC50 values.
Final Reaction Conditions were:
Examples of the instant invention were evaluated in JAK1 and JAK2 in vitro binding assays.
For `CC1NCc2cc(Nc3nn([C@H]4CCCC[C@@H]4C#N)c4cc[nH]c(=O)c34)ccc21` (single isomer, unassigned) [Example 12-4, (1S,2S)-2-(3-{[(1S or 1R)-1-methyl-2,3-dihydro-1H-isoindol-5-yl]amino}-4-oxo-4,5-dihydro-1H-pyrazolo[4,3-c]pyridin-1-yl)cyclohexanecarbonitrile], the IC50 stood at 0.58 nM.
In the case of `CC1NCc2cc(Nc3nn([C@H]4CCCC[C@@H]4C#N)c4cc[nH]c(=O)c34)ccc21` (single isomer, unassigned) [Example 12-5, (1S,2S)-2-(3-{[(1R or 1S)-1-methyl-2,3-dihydro-1H-isoindol-5-yl]amino}-4-oxo-4,5-dihydro-1H-pyrazolo[4,3-c]pyridin-1-yl)cyclohexanecarbonitrile], the IC50 was 0.61 nM.
Turning to `CC(c1ccc(Nc2nn([C@H]3CCCC[C@@H]3C#N)c3cc[nH]c(=O)c23)cc1)n1nccn1` (single isomer, unassigned) [Example 15-21, (1S,2S)-2-[4-oxo-3-({4-[(1S or 1R)-1-(2H-1,2,3-triazol-2-yl)ethyl]phenyl}amino)-4,5-dihydro-1H-pyrazolo[4,3-c]pyridin-1-yl]cyclohexanecarbonitrile], the IC50 stood at 0.39 nM.
Regarding `CC(c1ccc(Nc2nn([C@H]3CCCC[C@@H]3C#N)c3cc[nH]c(=O)c23)cc1)n1nccn1` (single isomer, unassigned) [Example 15-22, (1S,2S)-2-[4-oxo-3-({4-[(1R or 1S)-1-(2H-1,2,3-triazol-2-yl)ethyl]phenyl}amino)-4,5-dihydro-1H-pyrazolo[4,3-c]pyridin-1-yl]cyclohexanecarbonitrile], the IC50 was 0.48 nM.
As to `CC(C)C(c1ccc(Nc2nn([C@H]3CCCC[C@@H]3C#N)c3cc[nH]c(=O)c23)cc1)n1nccn1` (single isomer, unassigned) [Example 15-30, (1S,2S)-2-[3-({4-[(1S or 1R)-2-methyl-1-(2H-1,2,3-triazol-2-yl)propyl]phenyl}amino)-4-oxo-4,5-dihydro-1H-pyrazolo[4,3-c]pyridin-1-yl]cyclohexanecarbonitrile], the IC50 worked out at 0.36 nM.
Regarding `CC(C)C(c1ccc(Nc2nn([C@H]3CCCC[C@@H]3C#N)c3cc[nH]c(=O)c23)cc1)n1nccn1` (single isomer, unassigned) [Example 15-31, (1S,2S)-2-[3-({4-[(1R or 1S)-2-methyl-1-(2H-1,2,3-triazol-2-yl)propyl]phenyl}amino)-4-oxo-4,5-dihydro-1H-pyrazolo[4,3-c]pyridin-1-yl]cyclohexanecarbonitrile], the IC50 is 0.25 nM.
Turning to `Cc1cc(Nc2nn([C@H]3CCCC[C@@H]3C#N)c3cc[nH]c(=O)c23)ccc1C(C(C)C)n1nccn1` (single isomer, unassigned) [Example 15-35, (1S,2S)-2-[3-({3-methyl-4-[(1S or 1R)-2-methyl-1-(2H-1,2,3-triazol-2-yl)propyl]phenyl}amino)-4-oxo-4,5-dihydro-1H-pyrazolo[4,3-c]pyridin-1-yl]cyclohexanecarbonitrile], the IC50 stood at 1.2 nM.
Turning to `Cc1cc(Nc2nn([C@H]3CCCC[C@@H]3C#N)c3cc[nH]c(=O)c23)ccc1C(C(C)C)n1nccn1` (single isomer, unassigned) [Example 15-36, (1S,2S)-2-[3-({3-methyl-4-[(1R or 1S)-2-methyl-1-(2H-1,2,3-triazol-2-yl)propyl]phenyl}amino)-4-oxo-4,5-dihydro-1H-pyrazolo[4,3-c]pyridin-1-yl]cyclohexanecarbonitrile], the concentration for half-maximal inhibition (IC50) amounted to 0.46 nM.
Consider `CC(c1ccc(Nc2nn([C@H]3CCCC[C@@H]3C#N)c3cc[nH]c(=O)c23)cc1)n1ccnn1` (single isomer, unassigned) [Example 15-41, (1S,2S)-2-[4-oxo-3-({4-[(1R or 1S)-1-(1H-1,2,3-triazol-1-yl)ethyl]phenyl}amino)-4,5-dihydro-1H-pyrazolo[4,3-c]pyridin-1-yl]cyclohexanecarbonitrile], for which the half-inhibitory concentration (IC50) was found to be 0.21 nM.
With `CC(c1ccc(Nc2nn([C@H]3CCCC[C@@H]3C#N)c3cc[nH]c(=O)c23)cc1)n1ccnn1` (single isomer, unassigned) [Example 15-42, (1S,2S)-2-[4-oxo-3-({4-[(1S or 1R)-1-(1H-1,2,3-triazol-1-yl)ethyl]phenyl}amino)-4,5-dihydro-1H-pyrazolo[4,3-c]pyridin-1-yl]cyclohexanecarbonitrile], the concentration for half-maximal inhibition (IC50) came to 0.15 nM.
As to `COCC(C)(C)CN1Cc2cc(Nc3nn([C@@H]4CCCCC[C@H]4C#N)c4cc[nH]c(=O)c34)ccc2S1(=O)=O` (single isomer, unassigned) [Example 15-46, (1R,2R or 1S,2S)-2-(3-{[2-(3-methoxy-2,2-dimethylpropyl)-1,1-dioxido-2,3-dihydro-1,2-benzisothiazol-5-yl]amino}-4-oxo-4,5-dihydro-1H-pyrazolo[4,3-c]pyridin-1-yl)cycloheptanecarbonitrile], the IC50 was 0.076 nM.
Take `COCC(C)(C)CN1Cc2cc(Nc3nn([C@H]4CCCCC[C@@H]4C#N)c4cc[nH]c(=O)c34)ccc2S1(=O)=O` (single isomer, unassigned) [Example 15-49, (1S,2S or 1R,2R)-2-(3-{[2-(3-methoxy-2,2-dimethylpropyl)-1,1-dioxido-2,3-dihydro-1,2-benzisothiazol-5-yl]amino}-4-oxo-4,5-dihydro-1H-pyrazolo[4,3-c]pyridin-1-yl)cycloheptanecarbonitrile]: the half-maximal inhibitory concentration (IC50) was 5.1 nM.
For the compound `N#C[C@@H]1CCCCC[C@H]1n1nc(Nc2ccc3c(c2)CN(C(=O)N2CCCCC2)C3)c2c(=O)[nH]ccc21` (single isomer, unassigned) [Example 15-53, (1R,2R or 1S,2S)-2-(4-oxo-3-{[2-(piperidin-1-ylcarbonyl)-2,3-dihydro-1H-isoindol-5-yl]amino}-4,5-dihydro-1H-pyrazolo[4,3-c]pyridin-1-yl)cycloheptanecarbonitrile], the IC50 is 0.42 nM.
In the case of `N#C[C@H]1CCCC[C@@H]1n1nc(Nc2ccc(C3(C(F)(F)F)CCCN3)cc2)c2c(=O)[nH]ccc21` (single isomer, unassigned) [Example 15-61, (1S,2S)-2-[4-oxo-3-({4-[(2R or 2S)-2-(trifluoromethyl)pyrrolidin-2-yl]phenyl}amino)-4,5-dihydro-1H-pyrazolo[4,3-c]pyridin-1-yl]cyclohexanecarbonitrile], the IC50 was 0.14 nM.
As for `N#C[C@H]1CCCC[C@@H]1n1nc(Nc2ccc(C3(C(F)(F)F)CCCN3)cc2)c2c(=O)[nH]ccc21` (single isomer, unassigned) [Example 15-62, (1S,2S)-2-[4-oxo-3-({4-[(2S or 2R)-2-(trifluoromethyl)pyrrolidin-2-yl]phenyl}amino)-4,5-dihydro-1H-pyrazolo[4,3-c]pyridin-1-yl]cyclohexanecarbonitrile], the 50% inhibitory concentration (IC50) was found to be 0.11 nM.
`N#C[C@H]1CCC[C@@H]1n1nc(Nc2ccc(C3(C(F)(F)F)CCCCN3)cc2)c2c(=O)[nH]ccc21` (single isomer, unassigned) [Example 15-71, (1S,2S)-2-[4-oxo-3-({4-[(2S or 2R)-2-(trifluoromethyl)piperidin-2-yl]phenyl}amino)-4,5-dihydro-1H-pyrazolo[4,3-c]pyridin-1-yl]cyclopentanecarbonitrile]: the half-inhibitory concentration (IC50) amounted to 0.069 nM.
On to `N#C[C@H]1CCC[C@@H]1n1nc(Nc2ccc(C3(C(F)(F)F)CCCCN3)cc2)c2c(=O)[nH]ccc21` (single isomer, unassigned) [Example 15-72, (1S,2S)-2-[4-oxo-3-({4-[(2R or 2S)-2-(trifluoromethyl)piperidin-2-yl]phenyl}amino)-4,5-dihydro-1H-pyrazolo[4,3-c]pyridin-1-yl]cyclopentanecarbonitrile], for which the IC50 came out at 0.077 nM.
For the compound `CC(C)(C)[S@@+]([O-])N[C@@H](c1ccc(Nc2nn([C@H]3CCCC[C@@H]3C#N)c3cc[nH]c(=O)c23)cc1)C(F)(F)F` (stereo in doubt) [Example 3-55], the concentration for half-maximal inhibition (IC50) came out at 0.52 nM.
The value for `N#C[C@H]1CCCC[C@@H]1n1nc(Nc2cccc(CNC(=O)c3cnco3)c2)c2c(=O)[nH]ccc21` [Example 3-12, N-[3-({1-[(1S,2S)-2-cyanocyclohexyl]-4-oxo-4,5-dihydro-1H-pyrazolo[4,3-c]pyridin-3-yl}amino)benzyl]-1,3-oxazole-5-carboxamide] was 0.31 nM.
The value for `N#C[C@@H]1CCCC[C@H]1n1nc(Nc2cccc(CNC(=O)c3cnco3)c2)c2c(=O)[nH]ccc21` [Example 3-13, N-[3-({1-[(1R,2R)-2-cyanocyclohexyl]-4-oxo-4,5-dihydro-1H-pyrazolo[4,3-c]pyridin-3-yl}amino)benzyl]-1,3-oxazole-5-carboxamide] was 14 nM; that for `N#C[C@H]1CCCC[C@@H]1n1nc(Nc2ccc3c(c2)C(O)(CO)CCS3(=O)=O)c2c(=O)[nH]ccc21` (stereo partly drawn) [Example 3-48, (1S,2S)-2-(3-{[4-hydroxy-4-(hydroxymethyl)-1,1-dioxido-3,4-dihydro-2H-thiochromen-6-yl]amino}-4-oxo-4,5-dihydro-1H-pyrazolo[4,3-c]pyridin-1-yl)cyclohexanecarbonitrile] was 18 nM.
`CC(C)(C)[S@+]([O-])N[C@H](c1ccc(Nc2nn([C@H]3CCCC[C@@H]3C#N)c3cc[nH]c(=O)c23)cc1)C(F)(F)F` [Example 3-56, N-{(1R)-1-[4-({1-[(1S,2S)-2-cyanocyclohexyl]-4-oxo-4,5-dihydro-1H-pyrazolo[4,3-c]pyridin-3-yl}amino)phenyl]-2,2,2-trifluoroethyl}-2-methylpropane-2-sulfinamide]: the concentration for half-maximal inhibition (IC50) was found to be 0.31 nM.

Usually IC50 stands for the concentration at which inhibition is half-maximal.
